Measurements reported in ChEMBL document CHEMBL1201862, “PubChem BioAssay data set” (2004).
Active and inactive are the calls of the source.

Tests used:
Escherichia coli = experiment: microbe, parasite or virus in culture
HeLa = experiment: ATP-based viability loss in HeLa cells – cell-based, CellTiter-Glo luminescence, cherry-pick samples, cytotoxicity control for MITF activator project, dose response (AID 540259); assay type: functional; settings: Homo sapiens
[1] = target: T1, Nucleotide-binding oligomerization domain-containing protein 1 (Homo sapiens, UniProt Q9Y239); experiment: blockers of NOD1 pathway activity – revised, SAR follow-up (AID 2333); assay type: functional
T1 sequence (Q9Y239 whole entry): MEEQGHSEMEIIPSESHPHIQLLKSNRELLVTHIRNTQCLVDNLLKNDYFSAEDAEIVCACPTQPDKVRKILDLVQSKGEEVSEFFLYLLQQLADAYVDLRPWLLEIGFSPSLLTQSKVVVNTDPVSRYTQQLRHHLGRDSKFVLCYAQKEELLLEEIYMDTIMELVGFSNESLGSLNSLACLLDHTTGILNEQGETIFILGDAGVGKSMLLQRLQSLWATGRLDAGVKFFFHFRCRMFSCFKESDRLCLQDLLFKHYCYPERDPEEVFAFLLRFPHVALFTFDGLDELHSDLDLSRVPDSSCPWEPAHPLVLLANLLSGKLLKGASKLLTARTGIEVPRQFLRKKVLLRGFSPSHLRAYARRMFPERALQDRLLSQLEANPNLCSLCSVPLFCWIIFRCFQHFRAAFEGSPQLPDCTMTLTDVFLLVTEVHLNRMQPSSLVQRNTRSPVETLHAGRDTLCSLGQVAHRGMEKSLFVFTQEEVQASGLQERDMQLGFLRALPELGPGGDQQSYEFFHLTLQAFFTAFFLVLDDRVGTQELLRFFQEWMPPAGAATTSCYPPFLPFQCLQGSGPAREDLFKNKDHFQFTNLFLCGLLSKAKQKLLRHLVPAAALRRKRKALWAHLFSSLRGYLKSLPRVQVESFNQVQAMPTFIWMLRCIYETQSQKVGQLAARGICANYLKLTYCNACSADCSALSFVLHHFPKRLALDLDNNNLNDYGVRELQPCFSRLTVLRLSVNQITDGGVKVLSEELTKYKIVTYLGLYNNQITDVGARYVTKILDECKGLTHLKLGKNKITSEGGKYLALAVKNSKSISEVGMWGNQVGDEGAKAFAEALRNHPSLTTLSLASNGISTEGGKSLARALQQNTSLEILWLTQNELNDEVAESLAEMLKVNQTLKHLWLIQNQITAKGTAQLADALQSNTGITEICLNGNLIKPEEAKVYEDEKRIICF

HEK293 = experiment: cells; settings: Homo sapiens;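 further: cells exposed to compound for 14 hours overnight before viability readout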
Tumor necrosis factor = Tumor necrosis factor (Homo sapiens, UniProt P01375); experiment: analog potency on TNFa NF-kB signaling – cell-based, revised, SAR follow-up (AID 2337); assay type: functional
Phospholipase D1 = target: T2, Phospholipase D1 (Homo sapiens, UniProt Q13393); experiment: cellular phospholipase D1 inhibition IC50 – cell-based, dose response (AID 602151); assay type: functional;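 further: cellular PLD1 assay in Calu-1 cells stimulated with PMA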
T2 sequence (Q13393 whole entry): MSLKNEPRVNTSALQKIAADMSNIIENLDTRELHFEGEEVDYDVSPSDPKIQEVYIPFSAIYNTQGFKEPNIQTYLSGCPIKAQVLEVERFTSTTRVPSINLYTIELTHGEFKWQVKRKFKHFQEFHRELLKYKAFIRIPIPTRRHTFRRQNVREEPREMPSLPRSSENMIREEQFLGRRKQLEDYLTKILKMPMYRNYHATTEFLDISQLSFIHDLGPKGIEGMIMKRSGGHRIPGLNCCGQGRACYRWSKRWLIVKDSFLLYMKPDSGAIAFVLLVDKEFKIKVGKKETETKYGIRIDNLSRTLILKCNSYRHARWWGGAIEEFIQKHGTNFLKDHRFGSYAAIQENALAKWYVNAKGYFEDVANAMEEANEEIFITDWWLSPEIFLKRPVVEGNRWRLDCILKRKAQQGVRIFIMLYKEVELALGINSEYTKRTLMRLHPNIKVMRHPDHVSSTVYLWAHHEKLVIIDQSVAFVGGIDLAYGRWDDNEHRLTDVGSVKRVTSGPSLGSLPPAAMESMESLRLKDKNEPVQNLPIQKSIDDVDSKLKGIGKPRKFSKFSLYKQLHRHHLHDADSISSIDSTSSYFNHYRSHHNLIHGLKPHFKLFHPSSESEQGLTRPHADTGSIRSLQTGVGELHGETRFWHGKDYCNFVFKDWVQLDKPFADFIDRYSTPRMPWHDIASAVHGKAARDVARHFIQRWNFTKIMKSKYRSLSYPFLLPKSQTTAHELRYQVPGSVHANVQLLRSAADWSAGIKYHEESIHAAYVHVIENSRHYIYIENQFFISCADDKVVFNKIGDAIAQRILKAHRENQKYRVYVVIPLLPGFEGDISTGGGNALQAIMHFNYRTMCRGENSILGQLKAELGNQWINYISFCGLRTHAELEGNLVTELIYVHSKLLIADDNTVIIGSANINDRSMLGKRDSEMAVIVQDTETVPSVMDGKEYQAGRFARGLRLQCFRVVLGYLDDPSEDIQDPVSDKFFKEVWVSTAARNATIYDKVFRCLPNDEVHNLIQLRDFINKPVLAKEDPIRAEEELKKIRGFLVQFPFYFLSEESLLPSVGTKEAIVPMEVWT

Phospholipase D2 = Phospholipase D2 (Homo sapiens, UniProt O14939); experiment: cellular phospholipase D2 inhibition IC50 – cell-based, dose response (AID 602147); assay type: functional;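 further: cellular assay in HEK293 cells overexpressing GFP-tagged PLD2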
[2] = target: T3, Replicative DNA helicase DnaB (Mycobacterium tuberculosis, UniProt P9WMR3); experiment: DnaB intein splicing inhibitors, dose response, biochemical, cell-free fluorescence (AID 449749); assay type: functional
T3 sequence (P9WMR3 whole entry): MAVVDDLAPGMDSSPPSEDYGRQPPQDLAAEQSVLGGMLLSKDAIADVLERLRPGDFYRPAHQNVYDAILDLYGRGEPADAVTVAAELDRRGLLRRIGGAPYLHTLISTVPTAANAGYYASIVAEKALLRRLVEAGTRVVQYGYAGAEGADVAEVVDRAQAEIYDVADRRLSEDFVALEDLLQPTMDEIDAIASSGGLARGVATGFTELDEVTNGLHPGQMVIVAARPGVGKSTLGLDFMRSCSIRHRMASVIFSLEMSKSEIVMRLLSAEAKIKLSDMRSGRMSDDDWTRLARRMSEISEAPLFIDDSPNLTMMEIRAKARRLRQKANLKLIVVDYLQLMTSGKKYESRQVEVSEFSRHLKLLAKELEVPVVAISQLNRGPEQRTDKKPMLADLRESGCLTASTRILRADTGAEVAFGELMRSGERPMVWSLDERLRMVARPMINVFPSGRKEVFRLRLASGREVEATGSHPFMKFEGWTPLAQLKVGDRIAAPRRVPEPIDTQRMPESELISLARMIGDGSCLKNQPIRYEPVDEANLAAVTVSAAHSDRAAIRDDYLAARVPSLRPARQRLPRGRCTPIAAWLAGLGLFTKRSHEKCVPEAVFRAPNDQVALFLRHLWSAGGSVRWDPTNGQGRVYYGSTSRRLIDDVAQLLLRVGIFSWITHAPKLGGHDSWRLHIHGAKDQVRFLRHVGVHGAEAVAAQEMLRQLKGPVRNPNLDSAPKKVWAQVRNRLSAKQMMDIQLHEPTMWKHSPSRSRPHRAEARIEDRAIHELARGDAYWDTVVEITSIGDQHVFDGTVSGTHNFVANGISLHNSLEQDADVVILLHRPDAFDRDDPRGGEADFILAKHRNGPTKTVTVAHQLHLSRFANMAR

[3] = target: Glucose-6-phosphate 1-dehydrogenase (Homo sapiens, UniProt P11413); experiment: inhibition of Homo sapiens G6PD, dose series – biochemical, fluorescence, selectivity assay for P. falciparum G6PD inhibitor project, dose response (AID 504792); assay type: functional
[4] = target: T4, Apoptotic protease-activating factor 1 (Homo sapiens, UniProt O14727); assay type: functional
T4 sequence (O14727 whole entry): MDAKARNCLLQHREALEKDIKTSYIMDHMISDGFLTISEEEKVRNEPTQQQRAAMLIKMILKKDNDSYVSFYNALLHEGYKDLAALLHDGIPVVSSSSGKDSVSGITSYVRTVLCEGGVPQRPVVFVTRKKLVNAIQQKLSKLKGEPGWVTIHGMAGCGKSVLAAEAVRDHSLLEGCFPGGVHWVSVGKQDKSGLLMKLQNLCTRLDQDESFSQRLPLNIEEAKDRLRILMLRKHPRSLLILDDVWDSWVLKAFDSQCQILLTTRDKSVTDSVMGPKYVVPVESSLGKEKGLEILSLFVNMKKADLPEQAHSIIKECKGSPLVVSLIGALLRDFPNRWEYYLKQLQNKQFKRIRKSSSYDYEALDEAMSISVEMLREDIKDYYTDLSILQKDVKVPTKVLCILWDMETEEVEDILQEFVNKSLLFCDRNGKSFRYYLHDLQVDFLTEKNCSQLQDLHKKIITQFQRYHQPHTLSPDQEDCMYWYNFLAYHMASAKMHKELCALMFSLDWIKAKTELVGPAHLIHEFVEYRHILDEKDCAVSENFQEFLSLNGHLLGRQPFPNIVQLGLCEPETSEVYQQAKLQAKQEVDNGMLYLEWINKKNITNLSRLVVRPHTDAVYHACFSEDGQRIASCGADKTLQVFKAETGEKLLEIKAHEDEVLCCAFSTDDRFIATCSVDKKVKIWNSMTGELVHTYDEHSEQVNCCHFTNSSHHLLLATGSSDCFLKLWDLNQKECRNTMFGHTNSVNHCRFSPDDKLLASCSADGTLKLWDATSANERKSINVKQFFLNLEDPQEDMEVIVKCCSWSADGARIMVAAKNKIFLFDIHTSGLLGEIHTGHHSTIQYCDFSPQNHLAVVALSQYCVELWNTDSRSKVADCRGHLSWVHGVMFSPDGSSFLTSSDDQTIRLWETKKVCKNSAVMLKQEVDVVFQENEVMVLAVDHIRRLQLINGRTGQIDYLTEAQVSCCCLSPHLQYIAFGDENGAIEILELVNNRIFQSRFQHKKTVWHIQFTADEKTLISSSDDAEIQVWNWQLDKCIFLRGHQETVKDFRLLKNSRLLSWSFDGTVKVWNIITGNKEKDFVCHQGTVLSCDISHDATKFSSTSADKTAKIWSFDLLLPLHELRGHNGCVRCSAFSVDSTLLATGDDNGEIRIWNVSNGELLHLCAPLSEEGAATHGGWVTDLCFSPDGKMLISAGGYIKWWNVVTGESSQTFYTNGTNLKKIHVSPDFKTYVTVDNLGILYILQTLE

Protein RecA = target: T5, Protein RecA (Mycobacterium tuberculosis, UniProt P9WHJ3); experiment: Fluorescence Cell-Free Homogeneous Dose Retest to Identify Inhibitors of RecA-Intein Splicing Activity. [Related pubchem assays (depositor defined):AID2097, AID2223, AID489010, AID492950]; assay type: functional
T5 sequence (P9WHJ3 whole entry): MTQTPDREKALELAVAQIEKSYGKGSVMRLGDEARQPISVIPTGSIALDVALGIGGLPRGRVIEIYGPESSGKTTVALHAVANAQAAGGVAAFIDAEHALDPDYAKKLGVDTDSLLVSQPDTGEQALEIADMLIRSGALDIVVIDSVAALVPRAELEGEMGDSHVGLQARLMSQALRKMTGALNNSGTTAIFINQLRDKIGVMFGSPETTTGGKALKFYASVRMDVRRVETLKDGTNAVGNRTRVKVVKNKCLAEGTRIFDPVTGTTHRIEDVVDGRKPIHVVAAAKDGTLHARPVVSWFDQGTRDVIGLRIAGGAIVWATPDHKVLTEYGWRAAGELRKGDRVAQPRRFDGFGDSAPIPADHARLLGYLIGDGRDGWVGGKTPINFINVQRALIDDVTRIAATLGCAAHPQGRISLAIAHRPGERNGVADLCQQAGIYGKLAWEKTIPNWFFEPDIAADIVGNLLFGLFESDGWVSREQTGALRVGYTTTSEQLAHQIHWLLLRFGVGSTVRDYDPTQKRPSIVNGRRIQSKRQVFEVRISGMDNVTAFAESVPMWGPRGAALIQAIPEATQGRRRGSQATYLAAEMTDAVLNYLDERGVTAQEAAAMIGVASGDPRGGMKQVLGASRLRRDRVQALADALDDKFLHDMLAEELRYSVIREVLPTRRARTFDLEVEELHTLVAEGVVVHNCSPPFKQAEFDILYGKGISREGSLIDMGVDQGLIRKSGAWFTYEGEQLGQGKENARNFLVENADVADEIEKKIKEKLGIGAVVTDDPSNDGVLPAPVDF

Phospholipase D2, sequence (O14939 whole entry): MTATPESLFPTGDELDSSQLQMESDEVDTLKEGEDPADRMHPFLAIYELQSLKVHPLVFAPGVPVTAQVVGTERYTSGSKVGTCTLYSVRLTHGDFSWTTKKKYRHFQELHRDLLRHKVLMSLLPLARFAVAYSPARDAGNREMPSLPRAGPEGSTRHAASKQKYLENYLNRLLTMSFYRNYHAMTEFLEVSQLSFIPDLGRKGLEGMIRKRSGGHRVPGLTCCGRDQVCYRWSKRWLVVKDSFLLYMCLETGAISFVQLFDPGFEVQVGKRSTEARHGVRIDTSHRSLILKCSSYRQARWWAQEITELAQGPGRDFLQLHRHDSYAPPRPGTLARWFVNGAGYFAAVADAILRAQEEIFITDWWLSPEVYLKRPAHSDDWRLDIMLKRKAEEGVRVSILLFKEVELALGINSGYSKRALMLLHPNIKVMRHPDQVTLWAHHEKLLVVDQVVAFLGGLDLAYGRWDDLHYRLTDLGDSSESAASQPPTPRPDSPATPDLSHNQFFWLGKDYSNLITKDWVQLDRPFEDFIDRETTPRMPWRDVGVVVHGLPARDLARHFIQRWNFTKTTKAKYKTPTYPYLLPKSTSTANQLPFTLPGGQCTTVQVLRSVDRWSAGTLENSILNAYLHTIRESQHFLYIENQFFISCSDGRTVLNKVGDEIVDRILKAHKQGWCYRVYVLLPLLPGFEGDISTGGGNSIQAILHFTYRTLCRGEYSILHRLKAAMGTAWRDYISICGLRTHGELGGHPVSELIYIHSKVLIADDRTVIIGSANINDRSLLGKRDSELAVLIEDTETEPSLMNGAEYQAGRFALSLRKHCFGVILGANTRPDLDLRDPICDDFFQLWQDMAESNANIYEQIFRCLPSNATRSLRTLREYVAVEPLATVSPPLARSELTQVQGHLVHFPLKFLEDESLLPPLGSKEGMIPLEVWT
Glucose-6-phosphate 1-dehydrogenase, sequence (P11413 whole entry): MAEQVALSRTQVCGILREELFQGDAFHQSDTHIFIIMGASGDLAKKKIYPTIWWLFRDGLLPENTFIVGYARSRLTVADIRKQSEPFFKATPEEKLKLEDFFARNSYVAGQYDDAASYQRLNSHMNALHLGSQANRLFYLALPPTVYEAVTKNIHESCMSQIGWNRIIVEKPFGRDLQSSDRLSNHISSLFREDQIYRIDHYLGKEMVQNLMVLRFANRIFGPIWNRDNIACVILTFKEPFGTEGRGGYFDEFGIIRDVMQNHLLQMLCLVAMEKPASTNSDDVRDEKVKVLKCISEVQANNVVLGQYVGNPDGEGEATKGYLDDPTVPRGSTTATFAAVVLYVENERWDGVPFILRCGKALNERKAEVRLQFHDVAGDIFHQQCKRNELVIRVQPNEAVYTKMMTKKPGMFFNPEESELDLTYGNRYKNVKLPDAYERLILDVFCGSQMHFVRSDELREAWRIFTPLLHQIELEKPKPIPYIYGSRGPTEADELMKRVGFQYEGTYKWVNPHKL
Tumor necrosis factor, sequence (P01375 whole entry): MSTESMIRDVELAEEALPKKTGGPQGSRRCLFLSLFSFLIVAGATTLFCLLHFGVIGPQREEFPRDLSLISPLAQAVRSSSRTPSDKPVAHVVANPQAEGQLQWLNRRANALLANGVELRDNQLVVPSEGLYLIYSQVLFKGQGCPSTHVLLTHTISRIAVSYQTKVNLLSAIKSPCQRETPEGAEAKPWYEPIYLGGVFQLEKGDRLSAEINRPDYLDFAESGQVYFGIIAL

SMILES | AC50 (HeLa) | IC50 (Phospholipase D1) | IC50 (Phospholipase D2) | further results
C[C@H](NC(=O)c1[nH]cnc1C(=O)NCCCCCNC(=O)OC(C)(C)C)c1ccccc1 | – | – | – | AC50 (Escherichia coli): 63.8 µM (active)
CCc1ccc(-c2cn3nc(-c4ccccc4)cnc3n2)cc1 | 241 µM (active) | – | – | –
CC(=O)N1c2ccc(S(=O)(=O)N3CCN(c4ccc(Cl)cc4)CC3)cc2CC1C (configuration not stated) | – | – | – | IC50 [1]: 2.57 µM (active); IC50 (HEK293): > 20 µM (inactive); IC50 (Tumor necrosis factor): 5.76 µM (active)
COc1cccc(C(=O)Nc2ccc(NC(=O)C3CC3)cn2)c1 | 122 µM (active) | – | – | –
C[C@@H](CN1CC=C(n2c(=O)[nH]c3ccccc32)CC1)NC(=O)c1ccc2ccccc2c1 | – | 0.05 µM (active) | 2.25 µM (active) | –
Cc1ccc(C(=O)N(CCN2CCCCC2)CC2CCCN(C3CCCC3)C2)s1 (configuration not stated) | 72.6 µM (active) | – | – | –
C[C@@H](CN1CCC(n2c(=O)[nH]c3cc(I)ccc32)CC1)NC(=O)c1ccc2ccccc2c1 | – | 0.028 µM (active) | 6.37 µM (active) | –
Nc1ccc(N(CCO)CCO)cc1 | – | – | – | AC50 [2]: 256 µM (active); IC50 [3]: > 80 µM (inactive); IC50 [4]: 88.3 µM (active); EC50 (Protein RecA): > 380 µM (inconclusive)
C[C@@H](CN1CCC(n2c(=O)[nH]c3ccccc32)CC1)NC(=O)c1cc2ccccc2s1 | – | 0.002 µM (active) | 0.22 µM (active) | –
